{"source": "patent US11724980B2", "about": "“Quinones having high capacity retention for use as electrolytes in aqueous redox flow batteries” (President and Fellows of Harvard College, priority 2018, dated 2023)", "assay_type_in_all_cases": "physicochemical", "key": {"[1]": {"test": "CV simulation as two one-electron reductions", "conditions": "5 mM in 1 M KOH", "description": "FIG. 6. Capacitance-corrected CV of 5 mM 2,6-DBEAQ in 1 M KOH (solid grey line). The dashed red line represents the simulated total current arising from two successive one-electron reductions with reduction potentials of −0.517 and −0.511 V vs. SHE, according to the procedure outlined in a previous publication.^1 Each simulated reduction has a rate constant ko=7×10^−3 cm/s and α=0.5.\nA first CV experiment was performed in which 2,6-DBEAQ was dissolved in pH 14 KOH solution at a concentration of 5 mM. CV measurements were plotted in FIG. 5A and include results for the isomers of 2,6-DBEAQ.\nFollowing our previous study on 2,6-DHAQ^17 and literature reports^1,18 on quinone electrochemistry in the absence of proton donors, we simulated the CV of 2,6-DBEAQ as representing two reversible electron transfer steps at two different potentials E1 and E2. The separation between simulated redox potentials for the first (E1) and second (E2) electron reductions for 2,6-DBEAQ is considerably narrower than the corresponding peak separation for 2,6-DHAQ^17 (6 mV vs. 60 mV).\nThe pH dependence of the proton-coupled electron transfer (POET) redox reaction for a generalized anthraquinone (AQ) is often visualized by the nine-membered square scheme (FIG. 7). The horizontal direction indicates electron transfer (ET), and the vertical direction indicates proton transfer (PT or protonation). Under strongly alkaline conditions, where the pH is higher than the second pKa (pKa2) of the reduced AQ (AQ^2−), no protonation of the semiquinone anion will take place, and reduction proceeds via two ET steps, from AQ to a semiquinone (AQ-^●) at E1, and from AQ-^● to AQ^2− at E2 which is typically <E1. Depending on the value of E1-E2, the mechanism of AQ reduction in alkaline conditions can either be a concerted one-step, two-electron process or two single-electron processes. […]"}, "[2]": {"test": "Rotating disk electrode study with Levich analysis", "conditions": "5 mM in 1 M KOH, Levich plot", "description": "Glassy carbon was used as the working electrode for all three-electrode CV tests. RDE experiments were conducted using a Pine Instruments Modulated Speed Rotator AFMSRCE equipped with a 5 mm diameter glassy carbon working electrode, a Ag/AgCl reference electrode (BASi, pre-soaked in 3 M NaCl solution), and a graphite counter electrode. The electrode was rotated at a specific speed while the voltage was linearly swept from −0.4 to −0.11 V vs. Ag/AgCl (FIG. 4A). […]. RDE experiments were conducted using a Pine Instruments Modulated Speed Rotator AFMSRCE equipped with a 5 mm diameter glassy carbon working electrode, a Ag/AgCl reference electrode (BASi, pre-soaked in a 3 M KCl solution), and a graphite counter electrode. […]"}, "physchem": {"test": "physchem", "conditions": "for decomposition: 0.1 M", "description": "FIGS. 24A-24D. Comparison of the stability of DPPEAQ with respect to alkyl chain cleavage to that of 2,6-DBEAQ at pH 14. ^1H NMR spectra (500 MHz, 10 mM NaCH3SO3 internal standard, δ 2.6 ppm) of (A) DPPEAQ at pH 14; (B) DPPEAQ at pH 14, treated for 5.5 days at 95° C. and 0.1 M concentration; (C) 2,6-DBEAQ at pH 14; (D) 2,6-DBEAQ at pH 14, treated for 5.5 days at 95° C. and 0.1 M concentration. […] The relative integrals and splitting of the peaks in the spectra of DPPEAQ after treatment are consistent with the products of (3-hydroxypropyl)phosphonate cleavage. Samples of DPPEAQ at 0.1 M concentration and pH 14 in both the oxidized and reduced form were stored in FEP bottles and heated in an oven at 65° C. for 2 weeks. The extent of decomposition was determined by ^1H NMR, with peak integrals measured relative to an internal standard of NaCH3SO3 prepared at 10 mM concentration in D2O.\nBy performing elevated temperature chemical stability studies, we have identified that the cleavage of γ-hydroxybutyrate is involved in the decomposition of the oxidized form of 2,6-DBEAQ (FIGS. 10A-10C and FIGS. 11A-11D), and we have characterized the time course of γ-hydroxybutyrate cleavage at pH 12 and pH 14 and at 0.1 M and 0.5 M concentration (FIG. 12 and FIGS. 13A-13C). […]; these observations are consistent with long redox flow battery lifetime at typical operating cell conditions.\nWe designed an analogue of 2,6-DBEAQ but with phosphonate-terminated functional groups, DPPEAQ, appearing to deliver both of these desired outcomes.\nThe differing relative stabilities of DPPEAQ and 2,6-DBEAQ at pH 12 (at 95° C. and 0.1 M concentration), in contrast to the similar extent of their observed decomposition at pH 14, may be due to a competition between multiple decomposition mechanisms that vary in a pH-dependent manner. The concentration of hydroxide ions at pH 14 is tenfold higher than the concentration of either molecule at 0.1 M, as opposed to tenfold lower at pH 12. In particular, we propose a hydroxide-mediated nucleophilic substitution reaction (SNAr or SN2) that dominates the decomposition of both molecules at pH 14. However, at a lower pH of 12, an intramolecular reaction with carboxylate acting as the nucleophile dominates in the decomposition of 2,6-DBEAQ, while no analogous intramolecular reaction of DPPEAQ at pH 12 can take place due to much weaker nucleophilicity of bulked phosphonate compared with carboxylate. The difference in the dominant mechanisms of 2,6-DBEAQ decomposition at pH 12 and 14 that we are proposing is also consistent with the observation that the initial rate of degradation is not 100-fold slower at pH 12 relative to pH 14. […] In addition, the operability at lower pH serves to decrease the corrosion of battery systems and enable the use of less expensive materials."}}}
{"smiles": "O=C([O-])CCCOc1ccc2c(c1)C(=O)c1ccc(OCCCC(=O)[O-])cc1C2=O.[K+].[K+]", "note": "[2,6-DBEAQ, 4,4′-((9,10-anthraquinone-2,6-diyl)dioxy)dibutyric acid]", "values": [{"measurement": "rate constant ko of each simulated reduction", "setting": "[1]; α=0.5", "result": 0.007, "unit": "cm/s"}, {"measurement": "E1-E2 separation", "setting": "[1]; simulated CV", "result": 6, "unit": "mV"}, {"measurement": "diffusion coefficient for the oxidized form", "setting": "[2]", "result": "1.58×10^−6 cm^2/s"}, {"measurement": "half-life", "setting": "physchem; buffer, room temperature, pH 14, 0.1 M, oxidized form, from elevated temperature studies", "result": "~1830", "unit": "days"}, {"measurement": "decomposition", "setting": "physchem; pH 12, 6 days at 95° C.", "result": 15, "unit": "%"}, {"measurement": "decomposition", "setting": "physchem; pH 14, 5.5 days at 95° C.", "result": 45, "unit": "%"}, {"measurement": "stability of the reduced form", "setting": "physchem; temperatures up to 95° C.", "result": "quite stable"}]}
